Results taken from US10189839B2, “Tricyclic imidazole compounds as inhibitors of tryptophan hydroxylase” (ACTELION PHARMACEUTICALS LTD, priority 2013, dated 2019).

Target: T1, full length human TPH1 (Homo sapiens, UniProt P17752)
T1 construct: To generate the enzyme, full length human TPH1 is cloned into the plasmid pET20b(+); made in house; host or cells: E. coli
T1 sequence (P17752 1-444): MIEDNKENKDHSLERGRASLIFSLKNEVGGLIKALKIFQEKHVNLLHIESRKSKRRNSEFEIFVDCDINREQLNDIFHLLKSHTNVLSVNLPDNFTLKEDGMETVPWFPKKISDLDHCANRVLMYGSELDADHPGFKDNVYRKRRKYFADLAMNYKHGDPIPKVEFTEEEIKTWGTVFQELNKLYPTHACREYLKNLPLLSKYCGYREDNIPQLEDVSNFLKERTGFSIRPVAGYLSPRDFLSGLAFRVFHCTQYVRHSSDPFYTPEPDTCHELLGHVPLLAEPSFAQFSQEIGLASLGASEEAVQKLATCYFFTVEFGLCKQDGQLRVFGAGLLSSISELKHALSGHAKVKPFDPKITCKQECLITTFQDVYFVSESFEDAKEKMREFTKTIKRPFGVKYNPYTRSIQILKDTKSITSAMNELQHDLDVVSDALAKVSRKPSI
Assay: Biochemical in vitro assay using fluorescence readout (TPH1 enzyme activity)
Settings: Table 1, mean where determined several times
Procedure, shortened: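 E. coli-expressed full-length human TPH1 (40-80 nM), affinity- and size-exclusion-purified, incubated 60 min at 15° C. in 0.1M Tris-HCl pH 7.6 with 1 mM DTT, 0.2 mg/ml catalase, 100 μM 6-methyltetrahydropterine and 40 μM L-tryptophan. 5-Hydroxy-L-tryptophan read by fluorescence (ex 300/em 540 nm) after HClO4 quench; IC50 versus vehicle, mean where repeated.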

Row | Structure (SMILES) | IC50 [nM]
1 | CC(=O)N1CCn2c(nc3c2C(c2ncc(C)cc2F)N(C(=O)COc2ccc(N4CC(F)(F)C4)nc2Cl)CC3)C1 (centres unmarked) [Example 5.8.2, 1-(7-acetyl-1-(3-fluoro-5-methylpyridin-2-yl)-3,4,6,7,8,9-hexahydropyrido[4′,3′:4,5]imidazo[1,2-a]pyrazin-2(1H)-yl)-2-((2-chloro-6-(3,3-difluoroazetidin-1-yl)pyridin-3-yl)oxy)ethanone] | 51
2 | COC(=O)c1csc(C2c3c(nc4n3CCN(C(C)=O)C4)CCN2C(=O)COc2ccc(N3CCOCC3)nc2Cl)c1 (centres unmarked) [Example 5.5.1, methyl 5-(7-acetyl-2-(2-((2-chloro-6-morpholinopyridin-3-yl)oxy)acetyl)-1,2,3,4,6,7,8,9-octahydropyrido[4′,3′:4,5]imidazo[1,2-a]pyrazin-1-yl)thiophene-3-carboxylate] | 5
3 | O=C(COc1cccnc1C(F)(F)F)N1CCc2nc3n(c2C1c1ccc(C2CC2)cc1F)CCNC3 (centres unmarked) [Example 5.2.10, 1-(1-(4-cyclopropyl-2-fluorophenyl)-3,4,6,7,8,9-hexahydropyrido[4′,3′:4,5]imidazo[1,2-a]pyrazin-2(1H)-yl)-2-((2-(trifluoromethyl)pyridin-3-yl)oxy)ethanone] | 50
4 | O=C(COc1ccc(N2CCCS2(=O)=O)nc1Cl)N1CCc2nc3n(c2C1c1ccc(Cl)cc1F)CCS3 (centres unmarked) [Example 4.1.2, 1-(5-(4-chloro-2-fluorophenyl)-2,3,7,8-tetrahydrothiazolo[2′,3′:2,3]imidazo[4,5-c]pyridin-6(5H)-yl)-2-((2-chloro-6-(1,1-dioxidoisothiazolidin-2-yl)pyridin-3-yl)oxy)ethanone] | 7
5 | CCc1nc(NS(C)(=O)=O)ncc1OCC(=O)N1CCc2nc3n(c2C1c1sc(C)nc1C)CCCC3 (centres unmarked) [Example 1.10.18, N-(5-(2-(1-(2,4-dimethylthiazol-5-yl)-3,4,6,7,8,9-hexahydroimidazo[1,2-a:5,4-c′]dipyridin-2(1H)-yl)-2-oxoethoxy)-4-ethylpyrimidin-2-yl)methanesulfonamide] | 121
6 | Cc1cnc(C2c3c(nc4n3CCCC4)CCN2C(=O)COc2ccc(-c3ncco3)nc2Cl)c(F)c1 (centres unmarked) [Example 1.6.2, 2-((2-chloro-6-(oxazol-2-yl)pyridin-3-yl)oxy)-1-(1-(3-fluoro-5-methylpyridin-2-yl)-3,4,6,7,8,9-hexahydroimidazo[1,2-a:5,4-c′]dipyridin-2(1H)-yl)ethanone] | 41
7 | CS(=O)(=O)Nc1ccc(OCC(=O)N2CCc3nc4n(c3C2c2ccc(Cl)cc2F)CCS4)c(Cl)n1 (centres unmarked) [Example 4.1.1, N-(6-chloro-5-(2-(5-(4-chloro-2-fluorophenyl)-2,3,7,8-tetrahydrothiazolo[2′,3′:2,3]imidazo[4,5-c]pyridin-6(5H)-yl)-2-oxoethoxy)pyridin-2-yl)methanesulfonamide] | 19
8 | Cc1ccc(C2c3c(nc4n3CCNC4)CCN2C(=O)COc2ccc(CN3CCOCC3)cc2Cl)c(F)c1 (centres unmarked) [Example 5.12.2, 2-(2-chloro-4-(morpholinomethyl)phenoxy)-1-(1-(2-fluoro-4-methylphenyl)-3,4,6,7,8,9-hexahydropyrido[4′,3′:4,5]imidazo[1,2-a]pyrazin-2(1H)-yl)ethanone] | 52
9 | COc1nc(NS(C)(=O)=O)ccc1OCC(=O)N1CCc2nc3n(c2C1c1ccc(Cl)cc1F)CCCC3 (centres unmarked) [Example 1.1.13, N-(5-(2-(1-(4-chloro-2-fluorophenyl)-3,4,6,7,8,9-hexahydroimidazo[1,2-a:5,4-c′]dipyridin-2(1H)-yl)-2-oxoethoxy)-6-methoxypyridin-2-yl)methanesulfonamide] | 347
10 | CCc1nc(NS(C)(=O)=O)ccc1OCC(=O)N1CCc2nc3n(c2C1c1sc(C)nc1C)CCS3 (centres unmarked) [Example 4.5.1, N-(5-(2-(5-(2,4-dimethylthiazol-5-yl)-2,3,7,8-tetrahydrothiazolo[2′,3′:2,3]imidazo[4,5-c]pyridin-6(5H)-yl)-2-oxoethoxy)-6-ethylpyridin-2-yl)methanesulfonamide] | 16
11 | CC(=O)N1CCn2c(nc3c2C(c2cnc(N(C)C)s2)N(C(=O)COc2ccc(N4CCOCC4)nc2Cl)CC3)C1 (centres unmarked) [Example 5.6.2, 1-(7-acetyl-1-(2-(dimethylamino)thiazol-5-yl)-3,4,6,7,8,9-hexahydropyrido[4′,3′:4,5]imidazo[1,2-a]pyrazin-2(1H)-yl)-2-((2-chloro-6-morpholinopyridin-3-yl)oxy)ethanone] | 37
12 | Cc1nc(C)c(C2c3c(nc4n3CCCC4)CCN2C(=O)COc2ccc(C#N)cc2Cl)s1 (centres unmarked) [Example 1.10.10, 3-chloro-4-(2-(1-(2,4-dimethylthiazol-5-yl)-3,4,6,7,8,9-hexahydroimidazo[1,2-a:5,4-c′]dipyridin-2(1H)-yl)-2-oxoethoxy)benzonitrile] | 207
13 | CCc1nc(NS(C)(=O)=O)ccc1OCC(=O)N1CCc2nc3n(c2[C@@H]1c1ccc(Cl)cc1F)CCS3 [Example 4.1.15, (S)-N-(5-(2-(5-(4-chloro-2-fluorophenyl)-2,3,7,8-tetrahydrothiazolo[2′,3′:2,3]imidazo[4,5-c]pyridin-6(5H)-yl)-2-oxoethoxy)-6-ethylpyridin-2-yl)methanesulfonamide] | 6
14 | CCc1nc(NS(C)(=O)=O)ccc1OCC(=O)N1CCc2nc3n(c2C1c1sc(C)nc1C)CCCC3 (centres unmarked) [Example 1.10.13, N-(5-(2-(1-(2,4-dimethylthiazol-5-yl)-3,4,6,7,8,9-hexahydroimidazo[1,2-a:5,4-c′]dipyridin-2(1H)-yl)-2-oxoethoxy)-6-ethylpyridin-2-yl)methanesulfonamide] | 8

Second part, the compound after the results:

Row | IC50 [nM] | Structure (SMILES)
15 | 129 | CN(C)S(=O)(=O)c1ccc(OCC(=O)N2CCc3nc4n(c3C2c2ccc(Cl)cc2F)CCCC4)c(Cl)n1 (centres unmarked) [Example 1.1.29, 6-chloro-5-(2-(1-(4-chloro-2-fluorophenyl)-3,4,6,7,8,9-hexahydroimidazo[1,2-a:5,4-c′]dipyridin-2(1H)-yl)-2-oxoethoxy)-N,N-dimethylpyridine-2-sulfonamide]
16 | 25 | CN(c1ccc(OCC(=O)N2CCc3nc4n(c3C2c2ccc(Cl)cc2F)CCCC4)c(Cl)n1)S(C)(=O)=O (centres unmarked) [Example 1.1.9, N-(6-chloro-5-(2-(1-(4-chloro-2-fluorophenyl)-3,4,6,7,8,9-hexahydroimidazo[1,2-a:5,4-c′]dipyridin-2(1H)-yl)-2-oxoethoxy)pyridin-2-yl)-N-methylmethanesulfonamide]
17 | 68 | CC(C)(O)c1ccc(C2c3c(nc4n3CCCC4)CCN2C(=O)COc2ccc(C(=O)NC3CC3)nc2Cl)c(F)c1 (centres unmarked) [Example 1.24.1, 6-chloro-N-cyclopropyl-5-(2-(1-(2-fluoro-4-(2-hydroxypropan-2-yl)phenyl)-3,4,6,7,8,9-hexahydroimidazo[1,2-a:5,4-c′]dipyridin-2(1H)-yl)-2-oxoethoxy)picolinamide]
18 | 26 | CS(=O)(=O)Nc1ccc(OCC(=O)N2CCc3nc4n(c3C2c2ccc(Cl)cc2F)CCCCC4)c(Cl)n1 (centres unmarked) [Example 3.1.1, N-(6-chloro-5-(2-(1-(4-chloro-2-fluorophenyl)-3,4,7,8,9,10-hexahydro-1H-pyrido[4′,3′:4,5]imidazo[1,2-a]azepin-2(6H)-yl)-2-oxoethoxy)pyridin-2-yl)methanesulfonamide]
19 | 25 | CCN(C)C(=O)c1ccc(OCC(=O)N2CCc3nc4n(c3C2c2ccc(Cl)cc2F)CCCC4)c(Cl)n1 (centres unmarked) [Example 1.1.7, 6-chloro-5-(2-(1-(4-chloro-2-fluorophenyl)-3,4,6,7,8,9-hexahydroimidazo[1,2-a:5,4-c′]dipyridin-2(1H)-yl)-2-oxoethoxy)-N-ethyl-N-methylpicolinamide]
20 | 3 | CN(C)C(=O)c1ccc(OCC(=O)N2CCc3nc4n(c3C2c2ccc(C3CC3)cc2F)CCOC4)c(Cl)n1 (centres unmarked) [Example 6.2.3, 6-chloro-5-(2-(6-(4-cyclopropyl-2-fluorophenyl)-3,4,8,9-tetrahydro-1H-pyrido[4′,3′:4,5]imidazo[2,1-c][1,4]oxazin-7(6H)-yl)-2-oxoethoxy)-N,N-dimethylpicolinamide]
21 | 114 | Cc1cnc(C2c3c(nc4n3CCCC4)CCN2C(=O)COc2ccc(C(=O)N(C)C3CC3)nc2Cl)c(F)c1 (centres unmarked) [Example 1.6.3, 6-chloro-N-cyclopropyl-5-(2-(1-(3-fluoro-5-methyl-pyridin-2-yl)-3,4,6,7,8,9-hexahydroimidazo[1,2-a:5,4-c′]dipyridin-2(1H)-yl)-2-oxoethoxy)-N-methyl-picolinamide]
22 | 15 | Cc1ccc(C2c3c(nc4n3CCC4)CCN2C(=O)COc2ccc(NS(C)(=O)=O)nc2Cl)c(F)c1 (centres unmarked) [Example 2.2.1, N-(6-chloro-5-(2-(1-(2-fluoro-4-methylphenyl)-3,4,7,8-tetrahydro-1H-pyrrolo[2′,1′:2,3]imidazo[4,5-c]pyridin-2(6H)-yl)-2-oxoethoxy)pyridin-2-yl)methanesulfonamide]

Same assay, conditions: Table 2

Row | IC50 [nM] | Structure (SMILES)
23 | 94 | CN(C)C(=O)c1csc(C2c3c(nc4n3CCNC4)CCN2C(=O)COc2ccc(N3CCOCC3)nc2Cl)c1 (centres unmarked) [Example 5.3.1, 5-(2-(2-((2-Chloro-6-morpholinopyridin-3-yl)oxy)acetyl)-1,2,3,4,6,7,8,9-octahydropyrido[4′,3′:4,5]imidazo[1,2-a]pyrazin-1-yl)-N,N-dimethylthiophene-3-carboxamide]
